Experimental findings from patent EP0271099A2, “Substituted aminopropionic acid amides, process for their preparation, agents containing them and their use as well as the intermediates formed during the preparation” (HOECHST AKTIENGESELLSCHAFT, priority 1986, dated 1988) are described below.

One test relates to ECS-Amnesie. Nature of the test: Inhibitory (passive) avoidance test, reversal of amnesia induced by electroconvulsive shock. To be noted: Mus musculus, po, read-out: Inhibitory avoidance MED mg/kg p.o. ECS-Amnesie. In kind it is in vivo, Mäusen. An excerpt:
Die Verbindungen der Formel I besitzen wertvolle pharmakologische Eigenschaften, insbesondere nootrope. Die nootrope Wirkung der erfindungsgemäßen Verbindungen wurde an Mäusen, die ein Köpergewicht von 20-25 g besaßen, im inhibitory (passive) avoidance test geprüft. Eine modifizierte Form der von J. Kopp, Z. Bodanecky und M.E. Jarvik beschriebenen Testmethode wurde von J. Bures, O. Buresova und J. Huston im "Techniques and Basic Experiments for the Study of Brain and Behavior", Elsevier Scientific Publishers, Amsterdam 1983, beschrieben.
Entsprechend diesen Literaturangaben wird eine Substanz dann als nootrop wirksam bezeichnet, wenn sie bei den Versuchstieren die mittels eines elektroconvulsiven Schocks erzeugte Amnesie (ECS-Amnesie) aufzuheben vermag.
Die Versuche wurden nach modifizierten Testmethoden mit den erfindungsgemäßen Verbindungen durchgeführt. Als Vergleichsverbindung diente das bekannte Nootropikum 2-Oxo-1-pyrrolidinylessigsäureamid (Piracetam). Die deutliche Überlegenheit der erfindungsgemäßen Verbindungen über die Vergleichssubstanz zeigte sich darin, daß der amnestische Effekt bereits mit einer MED (minimal effective dosis) von 0,1-10 mg/kg p.o. aufzuheben ist. Die Vergleichssubstanz hat eine MED von ca. 500-1000 mg/kg p.o..
For `O=C(O)CCc1ccc(NC(=O)CCN2CC=C(c3cccc(Cl)c3)CC2)cc1` [Beispiel 49, 3-{4-[3-(4-(3-Chlorphenyl)-1,2,5,6-tetrahydropyridino)-propionamido]-phenyl}-propionsäure], the minimal effective dose was found to be 25 mg/kg.
On the same count and under the same terms, to `NC(=O)CN1CCCC1=O` [Piracetam, 2-Oxo-1-pyrrolidinylessigsäureamid, reference compound] belongs 1000 mg/kg.

Still in this test, the particulars now being: Mus musculus, po, read-out: MED (minimal effective dosis).
Regarding `NC(=O)CN1CCCC1=O` [Piracetam, 2-Oxo-1-pyrrolidinylessigsäureamid, reference compound], the minimal effective dose is 500 to 1000 mg/kg.

Still in this test, the particulars now being: Mus musculus; mice 20-25 g, oral; MED = minimal effective dosis reversing ECS-Amnesie; Table 1; read-out: Inhibitory avoidance MED mg/kg p.o. ECS-Amnesie.
With `O=C(O)CCc1ccc(NC(=O)CCN2CCN(c3cccc(Cl)c3)CC2)cc1` [Beispiel 34, 3-{4-(3-(4-(3-Chlorphenyl)-piperazino)-propionamido]-phenyl}-propionsäure], the minimal effective dose is 1.6 mg/kg.
The same measure, in the same setting: with `O=C(O)C=Cc1ccc(NC(=O)CCN2CCN(c3cccc(Cl)c3)CC2)cc1` [Beispiel 35, 4-{3-[4-(3-Chlorphenyl)-piperazino]-propionamido}-zimtsäure] the figure was 50 mg/kg; with `O=C(O)CCCc1ccc(NC(=O)CCN2CCC(c3ccccc3)CC2)cc1` [Beispiel 45, 4-{4-[3-(4-Phenylpiperidino)-propionamido]-phenyl}-buttersäure], 25 mg/kg.
The same measure, in the same setting: with `O=C(O)CCc1ccc(NC(=O)CCN2CCN(c3ccccc3)CC2)cc1` [Beispiel 46, 3-{4-[3-(4-Phenylpiperazino)-propionamido]-phenyl}-propionsäure] the figure was 25 mg/kg.
For the compound `O=C(O)CCc1ccc(NC(=O)CCN2CCN(CCCc3ccccc3)CC2)cc1` [Beispiel 47, 3-{4-[3-(4-(3-Phenylpropyl)-piperazino)-propionamido]-phenyl}-propionsäure], the minimal effective dose was 25 mg/kg.
On the same count and under the same terms, to `O=C(O)CCc1ccc(NC(=O)CCNCCCc2ccccc2)cc1` [Beispiel 48, 3-{4-[3-(3-Phenylpropylamino)-propionamido]-phenyl}-propionsäure] belongs 50 mg/kg.
